For orientation: LD50 means the dose expected to kill half of the subjects tested. A high value points to lower toxicity.

In data set [1] the test system is spontaneous hypertensive rats. The data set can be described thus: Hypotensive activity in non-narcotized, heart-catheterized spontaneous hypertensive rats. It is filed as in vivo. To be noted: Rattus norvegicus, oral, lowest blood pressure during 6 hours after administration, read-out: Hypotensive ratio. As for the experimental part: Hypotensive activity As the experimental animal, spontaneous hypertensive rats 5 to 7 months after birth with a body weight of 300 to 370 g were used. The blood pressure and the heart beat of the non-narcotized, heart-catheterized rats were operatively determined to calculate the averages in blood pressure and heart beat prior to the administration of the present compound. Successively during 6 hours after orally administering the present compound, the blood pressure and the heart beat were determined to calculate the hypotensive ratio by the following formula: [formula] wherein X is the average in blood pressure before administration; and Y is the value of the lowest blood pressure after the administration.

Data set [2] can be described thus: Acute toxicity (LD50, Litchfield-Wilcoxon method), oral administration to mouse. The note with it: in vivo. As for the experimental part: The present compound was orally administered to mouse and the acute toxicity value (LD50) was calculated according to Litchfield-Wilcoxonmethod.

Where a name gives a salt, the structure may show the parent alone.

In the case of `COc1ccccc1N1CCN(CCCCC(=O)c2ccc(OC)c(S(N)(=O)=O)c2)CC1` [Compound No. 2, 5-[5-[4-(2-methoxyphenyl)-1-piperazinyl]valeryl]-2-methoxy-benzenesulfonamide dihydrochloride], in data set [1], the inhibition in vivo at 0.3 mg/kg came out at 10.5%, the inhibition in vivo at 1 mg/kg came to 34.6% and the inhibition in vivo at 3 mg/kg amounted to 19.7%.

For `COc1ccccc1N1CCN(CCCCC(=O)c2ccc(SC)c(S(N)(=O)=O)c2)CC1` [Compound No. 6, 5-[5-[4-(2-methoxyphenyl)-1-piperazinyl]valeryl]-2-methylthio-benzenesulfonamide], the LD50 in data set [2] was > 3000 mg/kg. For the same molecule, in data set [1], the inhibition in vivo at 1 mg/kg was found to be 16.1%, the inhibition in vivo at 3 mg/kg came out at 24.3% and the inhibition in vivo at 10 mg/kg was 23%.

As for `COc1ccccc1N1CCN(CCCCC(=O)c2ccc([S+](C)[O-])c(S(N)(=O)=O)c2)CC1` (centres unmarked) [Compound No. 7, 5-[5-[4-(2-methoxyphenyl)-1-piperazinyl]valeryl]-2-methylsulfinyl-benzenesulfonamide], in data set [1], the inhibition in vivo at 1 mg/kg came out at 8.9%, the inhibition in vivo at 3 mg/kg worked out at 17.5% and the inhibition in vivo at 10 mg/kg was 31.3%.

Turning to `COc1ccccc1N1CCN(CCCCC(=O)c2ccc(O)c(C(N)=O)c2)CC1` [Compound No. 12, 5-[5-[4-(2-methoxyphenyl)-1-piperazinyl]valeryl]-salicylamide], in data set [2], the LD50 is > 3000 mg/kg. Moreover, the inhibition in vivo at 3 mg/kg in data set [1] was found to be 35.2%.

Consider `NC(=O)c1cc(C(=O)CCCCN2CCN(c3ccccc3Cl)CC2)ccc1O` [Compound No. 13, 5-[5-[4-(2-chlorophenyl)-1-piperazinyl]valeryl]salicylamide], for which, in data set [1], the inhibition in vivo at 3 mg/kg came to 19.7% and the inhibition in vivo at 10 mg/kg was found to be 16.5%.

In the case of `O=C(O)c1cc(C(O)CCCCN2CCN(c3ccccn3)CC2)ccc1O` (centres unmarked) [Compound No. 17, 5-[5-[4-(2-pyridyl)-1-piperazinyl]-1-hydroxypentyl]salicylic acid], in data set [1], the inhibition in vivo at 3 mg/kg came out at 21.1% and the inhibition in vivo at 10 mg/kg turned out to be 15.7%.

For the molecule `COc1ccccc1N1CCN(CCCCC(=O)c2ccc(O)c(NC(C)=O)c2)CC1` [Compound No. 23, 5-[5-[4-(2-methoxyphenyl)-1-piperazinyl]valeryl]-2-hydroxyacetanilide], the inhibition in vivo at 3 mg/kg in data set [1] was found to be 36.5%.

Molecule `COc1ccc(C(=O)CCCCN2CCN(c3ccccc3OC)CC2)cc1NC(N)=O` [Compound No. 26, 5-[5-[4-(2-methoxyphenyl)-1-piperazinyl]valeryl]-2-methoxy-N-carbamoylaniline] gave an LD50 in data set [2] of 2700 mg/kg. Moreover, the inhibition in vivo at 3 mg/kg in data set [1] amounted to 31.8%.

As to `COc1ccc(C(=O)CCCCN2CCN(c3ccccc3OC)CC2)cc1NS(C)(=O)=O` [Compound No. 29, 5-[5-[4-(2-methoxyphenyl)-1-piperazinyl]valeryl]-2-methoxy-N-methanesulfonylaniline dihydrochloride], in data set [1], the inhibition in vivo at 1 mg/kg was 22.8% and the inhibition in vivo at 3 mg/kg was 37.3%.

On to `COc1ccccc1N1CCN(CCCCC(=O)c2ccc(SC)c(NC(N)=O)c2)CC1` [Compound No. 34, 5-[5-[4-(2-methoxyphenyl)-1-piperazinyl]valeryl]-2-methylthio-N-carbamoylaniline], for which, in data set [1], the inhibition in vivo at 1 mg/kg was found to be 17.6%, the inhibition in vivo at 3 mg/kg came out at 28.9% and the inhibition in vivo at 10 mg/kg was found to be 39.9%.

With `COc1ccccc1N1CCN(CCCCC(=O)c2ccc([S+](C)[O-])c(NC(N)=O)c2)CC1` (centres unmarked) [Compound No. 35, 5-[5-[4-(2-methoxyphenyl)-1-piperazinyl]valeryl]-2-methylsulfinyl-N-carbamoylaniline], the LD50 in data set [2] is > 3000 mg/kg. Moreover, in data set [1], the inhibition in vivo at 0.3 mg/kg was found to be 16.5%, the inhibition in vivo at 1 mg/kg came out at 16.1%, the inhibition in vivo at 3 mg/kg turned out to be 25.6% and the inhibition in vivo at 10 mg/kg was 47.9%.

Regarding `COc1ccccc1N1CCN(CCCCC(=O)c2ccc3c(c2)NC(=O)CCO3)CC1` [Compound No. 41, 7-[5-[4-(2-methoxyphenyl)-1-piperazinyl]valeryl]-2,3,4,5-tetrahydro-1,5-benzoxazepine-4-one], in data set [1], the inhibition in vivo at 0.3 mg/kg was 25.9%, the inhibition in vivo at 1 mg/kg was 33% and the inhibition in vivo at 3 mg/kg came out at 35.6%.

Consider `O=C1CSc2ccc(C(=O)CCCN3CCN(c4ccccn4)CC3)cc2N1` [Compound No. 49], for which, in data set [1], the inhibition in vivo at 1 mg/kg was 10.9% and the inhibition in vivo at 3 mg/kg came to 45.7%.

Take `COc1ccc(C(O)CN2CCN(c3ccccc3)CC2)cc1S(N)(=O)=O` (centres unmarked) [Control 1, reference compound]: in data set [1], the inhibition in vivo at 1 mg/kg was found to be 10.5% and the inhibition in vivo at 10 mg/kg was determined as 2.5%.

For the molecule `NC(=O)c1cc(C(=O)CN2CCN(c3ccccc3)CC2)ccc1O` [Control 2, 5[2(4-phenyl-1-piperazinyl)acetyl]salicylamide, reference compound], in data set [1], the inhibition in vivo at 1 mg/kg came out at 9.9%, the inhibition in vivo at 3 mg/kg came out at 13.7% and the inhibition in vivo at 10 mg/kg is 6.6%.

Turning to `COc1ccc(C(O)CN2CCN(c3ccccc3)CC2)cc1NC(N)=O` (centres unmarked) [Control 3, reference compound], in data set [1], the inhibition in vivo at 3 mg/kg is 5.6% and the inhibition in vivo at 10 mg/kg is 9.4%.

The record behind these values is patent US4613598A, “Piperazine derivatives and their acid addition salts” (Mitsubishi Chemical Industries Limited, priority 1984, dated 1986).
